The source of these data is patent US20050159444A1, “Bicyclic unsaturated tertiary amine compounds” (SANKYO COMPANY, LIMITED, priority 2002, published 2005).

The test system of assay [1] is TNFα production. In words: Inhibition of the production of TNFα in vivo (lipopolysaccharide-injected mice). As to conditions: Mus musculus, oral, 30 minutes before lipopolysaccharide injection, plasma TNFα 1 hour after LPS, Balb/c mice, average vs control group, read-out: Inhibition Rate (%) of TNFα Production (in vivo). The procedure: Inhibition of the Production of TNFα In Vivo
This test was performed according to the method of Ochalaki et al. [S. J. Ochalaki, D. A. Hartman, M. T. Belfast, T. L. Walter, K. B. Glaser and R. P. Carlson; Inhibition of endotoxin-induced hypothermia and serum TNFα levels in CD-1 mice by various pharmacological agents: Agents Actions 39, C52-C54 (1998)].
The production of TNFα was induced in mice by intravenous injection of lipopolysaccharide (E. coli O26: B6 origin, Difco) which was prepared to a concentration of 0.045 mg/ml using physiological saline. The saline preparation of lipopolysaccharide was administered at the rate of 10 ml/1 kg of body weight into the caudal vein of Balb/c mice (males, age 5-7 weeks, body weight: approx. 22 g, Japan Charles River) which had been fasted overnight starting the day before the experiment. One hour after administration, the mice were laparotomized under ether anaesthesia and blood was collected from the abdominal vena cava. Blood collection was performed using a 1 ml volume disposable syringe equipped with a 23G needle which had been moistened with heparin on the inside wall. Following blood collection, the blood was immediately transferred to a 1.5 ml volume Eppendorf tube and centrifuged at 4° C. and 14,000 rpm to separate the plasma. This plasma was then stored at −20° C. until measurement of TNFα.
The measurement of the amount of TNFα was performed with a enzyme immunoassay (ELISA) kit (Mouse TNFα ELISA KIT, Genzyme).
To determine the inhibitory activity of the test compounds, each test compound was suspended in 0.5% tragacanth solution ad then administered orally to the mice at a rate of 10 ml/1 kg of body weight 30 minutes before injection of the lipopolysaccharide, and the average inhibition rates were calculated versus a control group.

Assay [2] concerns TNFα production. Description: Inhibition of the production of TNFα in vitro in human whole blood. The format is cell-based. As to conditions: lipopolysaccharide 10 μg/ml, 6 hours at 37° C., ELISA of plasma, read-out: Inhibitory Effect on TNFα Production (in vitro) IC50. The procedure:
Inhibition of the Production of the Cytokines IL-1β and TNFα In Vitro in Human Whole Blood
This test was performed according to the method of Hartman, et al. [D. A. Hartman, S. J. Ochalski and R. P. Carlson; The effects of anti-inflammatory and antiallergic drugs on cytokine release after stimulation of human whole blood by lipopolysaccharide and zymosan A: Inflamm. Res., 44, 269 (1995)].
Peripheral blood samples were collected in the presence of heparin from healthy adult volunteers. 1000 μl of whole blood was added to an Eppendorf tube to which 2 μl of a dimethyl sulfoxide solution of the test compound had been previously added, after which 10 μl of lipopolysaccharide (E. coli O26: B6 origin, Difco) was added as a stimulant (final concentration of said lipopolysaccharide: 10 μg/ml). This was thoroughly mixed and then incubated for 6 hours at 37° C. in the presence of 5% CO2. At the end of the incubation, the mixture was cooled to 4° C. to stop the reaction, followed immediately by centrifuging for 5 minutes at 14,000 rpm to separate and collect the supernatant plasma. The IL-1β and TNFα produced and released into the plasma were measured using a commercially available enzyme immunoassay (ELISA) kits [Cayman and Genzyme]. The inhibitory effect [IC50 (μM)] on the production of cytokines was determined by the method of least squares from the amounts of the cytokines produced in the presence and absence of the test compound.
For orientation: In an ELISA, binding on a coated surface is turned into a signal by an enzyme label.

Assay [3] deals with adjuvant-induced arthritis. In words: Activity in preventing the development of adjuvant-induced arthritis in vivo. To be noted: dose: 10 mg/kg, oral once a day from day 0 to day 20; measured on day 21; Lewis rat. The procedure:
Activity in Preventing the Development of Adjuvant-Induced Arthritis In Vivo The test was performed according to the method described by Winder et al. (Arthritis Rheum., 12, 472-482, 1969). Heat-killed dried Mycobacterium butyricum (Difco Laboratories, Lot 679123) was ground on an agate mortar, and was then suspended in dry-sterilised liquid paraffin (first grade, Wako Pure Chemical Industries, Ltd.) to make a 2 mg/ml suspension. The resulting suspension was then sonicated and used as an adjuvant. Arthritis was induced by the intradermal injection of the adjuvant (100 μg of heat killed dried bacterium/0.05 ml of paraffin/paw) into the heel of the right hind paw of a Lewis rat (male, age 9 weeks, 190 g, Japan Charles River). The rats were assigned to groups of 5 animals each. […] The volumes of the right hind paw (adjuvant-injected paw) and left hind paw (non-injected paw) were measured on days 3, 5, 7, 10, 13, 15, 18 and 21 using a Plethysmometer™ (Ugo Basile), the hind paws being soaked from the toe to the hairline in the bath of the Plethysmometer™. The volumes of the swollen feet (adjuvant-injected right hind foot volume—non-injected left hind foot volume) were calculated. The percent inhibition of swelling of the injected foot of the treated animals as compared to that of the control animals on day 21 was calculated as follows. [formula]

By inhibition in vivo is commonly meant the percentage by which the read-out fell short of the control. As for `CCOc1ccc([C@@H]2C[C@H]3C=C(c4c[nH]c(-c5ccc(F)cc5)c4-c4ccncc4)CCN3C2)cc1` [Example 30, 4-[(2S,8aS)-2-(4-Ethoxyphenyl)-1,2,3,5,6,8a-hexahydroindolizin-7-yl]-2-(4-fluorophenyl)-3-(pyridin-4-yl)-1H-pyrrole], in the assay with TNFα production [1], the inhibition in vivo at 5 mg/kg stood at 90%.
By IC50 is commonly meant the midpoint of a concentration-inhibition curve. For `Cc1ccc([C@H]2C[C@H]3C=C(c4c[nH]c(-c5ccc(F)cc5)c4-c4ccncc4)CCN3C2)cc1` [Example 4, 2-(4-Fluorophenyl)-4-[(2R,8aS)-2-(4-methylphenyl)-1,2,3,5,6,8a-hexahydroindolizin-7-yl]-3-(pyridin-4-yl)-1H-pyrrole], the IC50 in the assay with TNFα production [2] is 7.8 nM.
On to `Fc1ccc(-c2[nH]cc(C3=C[C@@H]4C[C@@H](c5ccccc5)CN4CC3)c2-c2ccncc2)cc1Cl` [Example 46, 2-(3-Chloro-4-fluorophenyl)-4-[(2S,8aS)-2-phenyl-1,2,3,5,6,8a-hexahydroindolizin-7-yl]-3-(pyridin-4-yl)-1H-pyrrole], for which the inhibition in vivo at 5 mg/kg with TNFα production [1] was 93%. In the assay on TNFα production [2], the IC50 came to 2.1 nM.
In the case of `COc1ccc([C@@H]2C[C@H]3C=C(c4c[nH]c(-c5ccc(F)cc5)c4-c4ccncc4)CCN3C2)cc1` [Example 16, 2-(4-Fluorophenyl)-4-[(2S,8aS)-2-(4-methoxyphenyl)-1,2,3,5,6,8a-hexahydroindolizin-7-yl]-3-(pyridin-4-yl)-1H-pyrrole], the inhibition in vivo at 5 mg/kg in the assay on TNFα production [1] was determined as 90%. Further, in the assay with TNFα production [2], the IC50 was determined as 5.4 nM.
Take `Fc1ccc(-c2[nH]cc(C3=C[C@@H]4C[C@@H](c5ccccc5)CN4CC3)c2-c2ccncc2)cc1F` [Example 8, 2-(3,4-Difluorophenyl)-4-[(2S,8aS)-2-phenyl-1,2,3,5,6,8a-hexahydroindolizin-7-yl]-3-(pyridin-4-yl)-1H-pyrrole]: the inhibition in vivo at 5 mg/kg in the assay on TNFα production [1] is 91%.
On the same count and under the same terms, the figure for `Cc1ccc([C@@H]2C[C@H]3C=C(c4c[nH]c(-c5ccc(F)c(F)c5)c4-c4ccncc4)CCN3C2)cc1C` [Example 41, 2-(3,4-Difluorophenyl)-4-[(2S,8aS)-2-(3,4-dimethylphenyl)-1,2,3,5,6,8a-hexahydroindolizin-7-yl]-3-(pyridin-4-yl)-1H-pyrrole] is 91%; for `COc1ccc([C@@H]2C[C@H]3C=C(c4c[nH]c(-c5cccc(Cl)c5)c4-c4ccncc4)CCN3C2)cc1` [Example 23, 2-(3-Chlorophenyl)-4-[(2S,8aS)-2-(4-methoxyphenyl)-1,2,3,5,6,8a-hexahydroindolizin-7-yl]-3-(pyridin-4-yl)-1H-pyrrole] it is 90%.
On to `Fc1ccc(-c2[nH]cc(C3=C[C@@H]4C[C@H](c5ccc(F)cc5)CN4CC3)c2-c2ccncc2)cc1` [Example 3, 2-(4-Fluorophenyl)-4-[(2R,8aS)-2-(4-fluorophenyl)-1,2,3,5,6,8a-hexahydroindolizin-7-yl]-3-(pyridin-4-yl)-1H-pyrrole], for which the IC50 in the assay with TNFα production [2] was determined as 5.1 nM.
Still for that read-out and setting: the figure for `CCC[C@H]1C[C@H]2C=C(c3n[nH]c(-c4ccc(F)cc4)c3-c3ccncc3)CCN2C1` [Example 6, 5-(4-Fluorophenyl)-3-[(2S,8aS)-2-propyl-1,2,3,5,6,8a-hexahydroindolizin-7-yl]-4-(pyridin-4-yl)-pyrazole] is 6.3 nM.
Regarding `Clc1cccc(-c2[nH]cc(C3=C[C@@H]4C[C@@H](c5ccccc5)CN4CC3)c2-c2ccncc2)c1` [Example 10, 2-(3-Chlorophenyl)-4-[(2S,8aS)-2-phenyl-1,2,3,5,6,8a-hexahydroindolizin-7-yl]-3-(pyridin-4-yl)-1H-pyrrole], the inhibition in vivo at 5 mg/kg with TNFα production [1] stood at 91%. In the assay with TNFα production [2], the IC50 is 7.3 nM.
In the case of `Fc1ccc(-c2[nH]cc(C3=C[C@@H]4C[C@@H](c5ccccc5)CN4CC3)c2-c2ccncc2)cc1` [Example 2, 2-(4-Fluorophenyl)-4-[(2S,8aS)-2-phenyl-1,2,3,5,6,8a-hexahydroindolizin-7-yl]-3-(pyridin-4-yl)-1H-pyrrole], the “Inhibition rate (%) of swelling of adjuvant-injected foot” value in assay [3] was 84%.
Consider `C1=C(c2c[nH]c(-c3ccccc3)c2-c2ccncc2)CCN2C[C@H](c3ccccc3)C[C@@H]12` [Example 25, 2-Phenyl-4-[(2S,8aS)-2-phenyl-1,2,3,5,6,8a-hexahydroindolizin-7-yl]-3-(pyridin-4-yl)-1H-pyrrole], for which the inhibition in vivo at 5 mg/kg with TNFα production [1] is 92%.
Take `Fc1ccc(-c2[nH]nc(C3=C[C@@H]4C[C@@H](c5ccccc5)CN4CC3)c2-c2ccncc2)cc1` [Example 7, 5-(4-Fluorophenyl)-3-[(2S,8aS)-2-phenyl-1,2,3,5,6,8a-hexahydroindolizin-7-yl]-4-(pyridin-4-yl)pyrazole]: the “Inhibition rate (%) of swelling of adjuvant-injected foot” value in assay [3] was 81%.
In the case of `COc1cccc([C@@H]2C[C@H]3C=C(c4c[nH]c(-c5ccc(F)c(F)c5)c4-c4ccncc4)CCN3C2)c1` [Example 31, 2-(3,4-Difluorophenyl)-4-[(2S,8aS)-2-(3-methoxyphenyl)-1,2,3,5,6,8a-hexahydroindolizin-7-yl]-3-(pyridin-4-yl)-1H-pyrrole], in the assay with TNFα production [1], the inhibition in vivo at 5 mg/kg was 92%.
Turning to `Cc1ccc([C@@H]2C[C@H]3C=C(c4c[nH]c(-c5ccc(F)c(F)c5)c4-c4ccncc4)CCN3C2)cc1` [Example 12, 2-(3,4-Difluorophenyl)-4-[(2S,8aS)-2-(4-methylphenyl)-1,2,3,5,6,8a-hexahydroindolizin-7-yl]-3-(pyridin-4-yl)-1H-pyrrole], in the assay on TNFα production [2], the IC50 turned out to be 5.5 nM.
